# Literature values as cited in US5366983A, “Use of quaternary ammonium compounds to remove salmonella contamination from meat products” (The Board of Trustees of The University of Arkansas, priority 1992, dated 1994).
# Key:
# [1] = system: Staphylococcus aureus ATCC 29213; conditions: S. aureus; cited from earlier work
# [2] = system: Escherichia coli ATCC 25922; conditions: E. coli; cited from earlier work
compound,measurement,setting,value
CC1(C)S[C@@H]2[C@H](NC(=O)[C@H](N)c3ccccc3)C(=O)N2[C@H]1C(=O)O [ampicillin],acceptable MIC by NCCLS,[1],0.5 to 2 µg/mL
same,acceptable MIC by NCCLS,[2],2 to 8 µg/mL
